According to patent US20120213837A1, “COMPOSITIONS AND METHODS FOR BIOACTIVE COATINGS TO IMPROVE ALLOGRAFT INCORPORATION” (priority 2009, published 2012):
“Also recorded” adds a separate entry of the source.

Tests used:
[1] = in vivo; cited from earlier work
[2] = In vitro release of 33P-labelled S1P from PLAGA-coated allografts; encapsulation efficiency; format: physicochemical
Procedure: Allograft samples were coated similarly to the above protocol with radio-labeled sphingosine-1-phosphate (S1P, Cayman Chemical, Ann Arbor Mich.) to measure drug release over a 14-day period. Specifically, 2.92 mg of S1P was resolubilized in MeCl to a final concentration of 2 mg/mL by frequent heating and vortexing. Using a conversion factor of 2.2×10^6 cpm/μCi and 1 μCi/μL, 6.8 μL of Phosphorus-33 (^33P) (Perkin Elmer, Inc., Waltham, Mass.) was added to the S1P solution. Next, 583 mg of 50:50 PLAGA was added to the S1P-^33P solution to achieve a 1:12 (wt./vol.) polymer-solvent ratio. The final solution had 2.92 mg of S1P, 6.8 μL of ^33P, and 583 mg of 50:50 PLAGA mixed in 7 mL of MeCl. The coated allografts were then placed into a glass scintillation vial containing 50 μL of simulated body fluid (SBF) with 4% fatty acid free (FAF) BSA. Following 24 hours incubation, the allografts were removed from the vials and the remaining 4% FAF-BSA SBF was mixed with 5 mL of EcoScintA biodegradable scintillation solution for quantifying drug release using the Beckman Coulter liquid scintillation counter. Allografts were then placed into a new glass vial containing fresh 4% FAF-BSA SBF. This cycle was repeated for a 14-day period to achieve cumulative measurements. Encapsulation efficiency (maximum amount of S1P that can be released) was quantified by placing allografts in MeCl to completely dissolve the drug-containing polymer solution.
To determine total amount of drug loaded into allograft implants and the kinetics of drug release, in vitro experiments were conducted utilizing allografts loaded with S1P-^33P (FIG. 3). Complete degradation of PLAGA occurs between 6-8 weeks. However, substantial S1P release was expected to occur earlier, given the bulk degradation profile of PLAGA. We found approximately 0.64 mg of the original 1 mg of S1P was actually loaded within the polymer-coated allograft (64% loading efficiency). After 14 days incubation, 0.57 mg of S1P was detected in the simulated body fluid (SBF). […]

[3] = in the absence of a carrier protein; cited from earlier work
[4] = test system: smooth muscle proliferation and migration; settings: daily injections; cited from earlier work
[5] = test system: allograft-host bone interface; assay: H&E and Masson's trichrome staining of tibial defects; format: in vivo, Sprague Dawley rats; settings: 6 weeks healing, vs U and C groups
Procedure: (§1) All animal surgeries were performed according to an approved protocol from the UVA Animal Care and Use Committee. Briefly, adult male Sprague Dawley rats (˜400 g) were randomly assigned to three different experimental groups: uncoated allograft (U), coated 1:12 PLAGA (C), and coated 1:12 PLAGA loaded with 1:200 FTY720 (C/L). Animals were anesthetized with isoflurane gas. Following anesthetization, the dorsal skin was sterilized with betadine and 70% ethanol. A small incision was made longitudinally over the midshaft of the tibia. Subperiosteal dissection was performed once the subcutaneous tissue was dissected over the anterior aspect of the tibia. […]
For CD45 staining to visualize leukocyte recruitment, four 7 μm-thick histological sections per sample (cryo-embedded) were blocked 3×10 minutes in PBS/saponin/BSA and immunolabeled with CD45 (BD Pharmingen) diluted 1:50 in PBS/saponin/BSA. […] To quantify changes in vascular remodeling (particularly recruitment of mural cells) in response to FTY720, SMA-positive cells that formed an obvious lumen were quantified in each tissue section. Total tissue area was measured in ImageJ, and the FTY720-mediated response was represented as a fraction of SMA-positive lumens per total tissue area. […]

[6] = test system: SMA-positive lumens (mural cell recruitment); assay: Smooth muscle alpha-actin (SMA) immunostaining of tibial defect sections; format: in vivo, Sprague Dawley rats; settings: 6 weeks, interface/allograft regions, vs U and C groups
Procedure: as §1
(§2) For CD45 staining to visualize leukocyte recruitment, four 7 μm-thick histological sections per sample (cryo-embedded) were blocked 3×10 minutes in PBS/saponin/BSA and immunolabeled with CD45 (BD Pharmingen) diluted 1:50 in PBS/saponin/BSA. […] To quantify changes in vascular remodeling (particularly recruitment of mural cells) in response to FTY720, SMA-positive cells that formed an obvious lumen were quantified in each tissue section. Total tissue area was measured in ImageJ, and the FTY720-mediated response was represented as a fraction of SMA-positive lumens per total tissue area.

[7] = test system: host-bone-allograft integrated structure (excised tibias); assay: Post-operative mechanical properties, compression in Instron 4511; format: in vivo, Sprague Dawley rats; settings: 6 weeks post-op, compression 1 mm/min, vs U and C groups
Procedure: All animal surgeries were performed according to an approved protocol from the UVA Animal Care and Use Committee. Briefly, adult male Sprague Dawley rats (˜400 g) were randomly assigned to three different experimental groups: uncoated allograft (U), coated 1:12 PLAGA (C), and coated 1:12 PLAGA loaded with 1:200 FTY720 (C/L). Animals were anesthetized with isoflurane gas. Following anesthetization, the dorsal skin was sterilized with betadine and 70% ethanol. A small incision was made longitudinally over the midshaft of the tibia. Subperiosteal dissection was performed once the subcutaneous tissue was dissected over the anterior aspect of the tibia. A Dremel rotary tool with a Diamond Wheel accessory was used to make an 8 mm defect slightly distal to the tibial tubercle and the 8 mm allograft segment was inserted into the defect. A stab incision was made just medial to the patellar tendon and a 19.5 gauge needle was inserted into the intramedullary canal, through the allograft, into the distal intramedullary canal to resistance, and tamped flush to the bone. […]
A leading cause of allograft failure or post-operative complications includes mechanical instability at the bone-allograft interface. […] To determine the elastic modulus, the slope was calculated between the values of 0.07 to 0.08 strain, since this was the interval in which the elastic region existed in all the graphs.

[8] = test system: critical size calvarial bone defects; settings: 3D PLAGA scaffolds delivering FTY720; cited from earlier work
arterioles = settings: sustained release from 50:50 PLAGA films, 1:200 wt/wt; cited from earlier work
CD45+ leukocytes = assay: CD45 immunostaining of tibial defect sections; format: in vivo, Sprague Dawley rats; settings: 6 weeks, qualitative images
Procedure: as §1, §2

In the case of `CCCCCCCCCCCCC/C=C/[C@@H](O)[C@@H](N)COP(=O)(O)O` [S1P, sphingosine-1-phosphate], the half-life in blood [1] is listed as “less than 1 hour”, the loading efficiency ([2]; 50:50 PLAGA 1:12 coated allograft) is listed as 64% and the release profile ([2]; 50:50 PLAGA coated allograft, SBF) is listed as “initial burst release of drug was observed during the first five days”. The “amount of S1P loaded within the polymer-coated allograft” value ([2]; of the original 1 mg of S1P, 50:50 PLAGA 1:12 coating) was “approximately 0.64 mg” and the “solubility in aqueous solutions” value [3] was “insoluble”.

For `CCCCCCCCc1cccc(NC(=O)[C@H](N)CCP(=O)(O)O)c1` [VPC44116], the “smooth muscle proliferation and migration” value [4] is given as “significantly decreased”.

For `CCCCCCCCc1ccc(CCC(N)(CO)CO)cc1` [FTY720, Fingolimod], the “allograft-host bone integration, histology” value [5] was “superior collagen alignment, osseous tissue generation along the outer edge of the allograft tissue, better preservation of inner cancellous porous regions, and preservation of allograft-tibial alignment”, the “number of blood vessels stained with smooth muscle alpha-actin” value [6] was “significantly increased; also recorded: enhanced the number of smooth-muscle-invested vessels” and the elastic modulus [7] was “statistically significant increases”. For the same molecule, the ultimate compressive strength [7] was “statistically significant increases”, the “osseous tissue ingrowth and proportion of mature smooth muscle cell-invested microvessels” value [8] was “significantly increases” and the “microvascular remodeling (arterioles)” value (arterioles) was “promotes formation of new arterioles and structural enlargement of existing arterioles”. The half-life [1] was “approximately 7 days” and the “number of CD45+ leukocytes within allograft-host bone interface” value (CD45+ leukocytes) was “reductions in the number of leukocytes; also recorded: significant reduction”.
